Source: patent US20040133938A1, “Use of lipoic acid in plant culture media” (priority 2002, published 2004)

Tested on: MicroTom cotyledon explants
Assay: MicroTom Agrobacterium transformation: shoot regeneration, transformation efficiency, escapes
Format: cell-based, Lycopersicon esculentum
Conditions: for % of explants producing shoots (>1 cm in length): selection medium; for % of shoots that were escapes (did not root on selection medium): kanamycin selection
Description: This example describes the use of lipoic acid in an Agrobacterium-based tomato transformation process. MicroTom (a cultivar of tomato species: Lycopersicon esculentum) seeds from Tomato Growers (Ball Seed Co., West Chicago, Ill. USA) were surface-sterilized by first soaking for 10 min in sterile deionized water, removing the water, and then adding enough 70% ethanol to immerse the seeds for 1 min while stirring vigorously and then aspirating the ethanol. The seeds were rinsed 2× with sterile deionized water and then soaked in 25% Chlorox with 1-2 drops of Tween 20 for 10 min while stirring frequently. The seeds were rinsed 3× with sterile deionized water. The seeds were germinated in phytatrays containing Davis Germination medium (4.3 g/L MS salts, 2 ml/L Gamborg's B-5 500× salts, 20 g/L sucrose and 10 g/L agar) (approximately 120 seeds/container), and the phytatrays were wrapped with aluminum foil. The phytatray cultures were maintained at 28° C. under the dark for 5 days. After 5 days, the phytatray cultures were unwrapped and grown at 24° C. under a 16 h photoperiod for about 44 h.
Agrobacterium containing the desired transformation vector with a selectable marker (nptII for kanamycin selection as shown in FIG. 1) was streaked on a fresh LBssck plate (LB, 200 mL; spectinomycin (50 mg/mL stock), 200 μL; streptomycin (50 mg/mL stock), 200 μL; kanamycin (50 mg/mL stock), 200 μL; chloramphenicol (CAP, 25 mg/mL stock), 200 μL) from a frozen glycerol stock, and grown at about 28° C. for 3-4 days. One day before inoculation, a loopful of the bacterium cells from the freshly streaked plate was inoculated into 2 mL of LB+(LB, 200 mL; spectinomycin or streptomycin (50 mg/mL stock), 400 μL; kanamycin (50 mg/mL stock), 200 μL; chloramphenicol (CAP, 25 mg/mL stock), 200 μL) without acetosyringone, and grown at about 28° C. on a rotator at the speed between medium to high overnight. Then, 0.2 mL of the overnight bacterium culture was inoculated into 2 mL of LB+0.2 mM acetosyringone, and grown at about 28° C. on a rotator at the speed between medium to high for 4 hours.
Four hours after the sub-culture, the bacterium growth phase was measured using the spectrophotometer. The final O.D.660 of the bacterium culture was between about 0.9 and 1.4. The bacterium culture was diluted by adding the bacterium culture to TXD medium in a sterile tube based on the volume to get the working O.D.660=0.1.
Cotyledon explants were isolated from seedlings 7 days after sowing seeds on Davis Germination medium. Cotyledon explants were prepared by bathing them in 6 mL of TXD liquid medium (4.3 g/L MS salts, 2 mL/L Gamborg's B-5 500× salts, 4 mg/L pCPA (p-chlorophenoxyactic acid), 0.005 mg/L kinetin, and 30 g/L sucrose) to prevent desiccation and trimming them at both ends using a #15 feather blade. Immediately after the trimming, the cotyledon explants were gently placed on “feeder plates” containing UC2PC medium (2.2 g/L MS salts, 2.2 mL/L, Gamborg's B-5 500× salts, 0.2 mg/L 2,4-D, 4 mg/L pCPA, 0.1 mg/L kinetin, 30 g/L sucrose, 0.2 g/L potassium phosphate, 10 g/L agar, 8 mL/L acetosyringone (4.91 mg/mL), and 4 mL galacturonic acid (53.05 mg/mL)). The “feeder plates” are made by overlaying 2 mL of tobacco suspension cells and a sterile Whatman filter on the plates containing UC2PC medium. The cotyledon explants were gently poked with a sharp forceps (ASIM5311, Stainless French, made in Switzerland). Usually six to ten pokes were made per explant depending the size of cotyledons. Right after poking, the cotyledons were inoculated with Agrobacterium containing pMON15715 (FIG. 1) by adding 3 mL of the adjusted Agrobacterium solution on top of the cotyledons. The plates were incubated for 10 min at room temperature, and the Agrobacterium solution was aspirated with a sterile pipette. The cotyledons were then co-cultured for 2 days at 23-24° C. under a 16-h photoperiod. […]

For `O=C(O)CCCCC1CCSS1` (stereo not drawn) [lipoic acid, 1,2-dithiolane-3-pentanoic acid], the “% of explants producing shoots (>1 cm in length)” value (“% of explants producing shoots” for short) (5 μM lipoic acid, 45 explants) was 68.9%, the “% of resp. explant producing transgenic plants” value (5 μM lipoic acid, MicroTom) was 78.6% and the “% of transgenic plants/shoot” value (5 μM lipoic acid, MicroTom) was 43.9%. The “Efficiency (stable transformation efficiency, percentage of transgenic plants produced per explant)” value (5 μM lipoic acid, MicroTom) was 155.1%, the “No. of total shoots produced/explant” value (5 μM lipoic acid, MicroTom) was 3.53 and the “No. of total shoots produced/resp. explant” value (5 μM lipoic acid, MicroTom) was 4.93. The “No. of transgenic plants produced/resp. explant” value (5 μM lipoic acid, MicroTom) was 2.25, the “TE (percentage of transgenic events produced per explant)” value (5 μM lipoic acid, MicroTom) was 78.3% and the “% of shoots that were escapes (did not root on selection medium)” value (5 μM lipoic acid) was 54.6%. For the same compound, the “% of explants producing shoots” value (10 μM lipoic acid, 46 explants) was 67.4%, the “% of resp. explant producing transgenic plants” value (10 μM lipoic acid, MicroTom) was 74.2% and the “% of transgenic plants/shoot” value (10 μM lipoic acid, MicroTom) was 42.9%. For the same compound, the “Efficiency (stable transformation efficiency, percentage of transgenic plants produced per explant)” value (10 μM lipoic acid, MicroTom) was 178.7%, the “No. of total shoots produced/explant” value (10 μM lipoic acid, MicroTom) was 4.17 and the “No. of total shoots produced/resp. explant” value (10 μM lipoic acid, MicroTom) was 6.19. The “No. of transgenic plants produced/resp. explant” value (10 μM lipoic acid, MicroTom) was 2.65, the “TE (percentage of transgenic events produced per explant)” value (10 μM lipoic acid, MicroTom) was 94.1% and the “% of shoots that were escapes (did not root on selection medium)” value (10 μM lipoic acid) was 58.3%. The “% of explants producing shoots” value (50 μM lipoic acid, 49 explants) was 61.2%, the “% of resp. explant producing transgenic plants” value (50 μM lipoic acid, MicroTom) was 67.9% and the “% of transgenic plants/shoot” value (50 μM lipoic acid, MicroTom) was 48.0%. The “Efficiency (stable transformation efficiency, percentage of transgenic plants produced per explant)” value (50 μM lipoic acid, MicroTom) was 144.1%, the “No. of total shoots produced/explant” value (50 μM lipoic acid, MicroTom) was 3.00 and the “No. of total shoots produced/resp. explant” value (50 μM lipoic acid, MicroTom) was 4.83. For the same compound, the “No. of transgenic plants produced/resp. explant” value (50 μM lipoic acid, MicroTom) was 2.35, the “TE (percentage of transgenic events produced per explant)” value (50 μM lipoic acid, MicroTom) was 76.4% and the “% of shoots that were escapes (did not root on selection medium)” value (50 μM lipoic acid) was 55.4%. The “% of explants producing shoots” value (100 μM lipoic acid, 43 explants) was 25.6%, the “% of resp. explant producing transgenic plants” value (100 μM lipoic acid, MicroTom) was 93.8% and the “% of transgenic plants/shoot” value (100 μM lipoic acid, MicroTom) was 50.6%. The “Efficiency (stable transformation efficiency, percentage of transgenic plants produced per explant)” value (100 μM lipoic acid, MicroTom) was 112.1%, the “No. of total shoots produced/explant” value (100 μM lipoic acid, MicroTom) was 2.21 and the “No. of total shoots produced/resp. explant” value (100 μM lipoic acid, MicroTom) was 8.64. For the same compound, the “No. of transgenic plants produced/resp. explant” value (100 μM lipoic acid, MicroTom) was 4.38, the “TE (percentage of transgenic events produced per explant)” value (100 μM lipoic acid, MicroTom) was 49.7% and the “% of shoots that were escapes (did not root on selection medium)” value (100 μM lipoic acid) was 57.1%. The “effect on total transgenic and non-transgenic shoot induction” value (lipoic acid from 5 μM to 50 μM) was “no inhibition effect”, the “increase of the stable transformation efficiency” value (summary, MicroTom, from 40%) was 6.5 fold and the stable transformation efficiency (summary, MicroTom, with lipoic acid) was “up to 260%”.
